Consider 30 compounds from publication PMC9696832, “Pyrazole-Based Thrombin Inhibitors with a Serine-Trapping Mechanism of Action: Synthesis and Biological Activity” (Pharmaceuticals, 2022).

One series has as its target T1, human α-thrombin (Homo sapiens, UniProt P00734).
T1 construct: human α-thrombin (active) protein; purchased antibodies-online ABIN2127880
In words: Serine protease inhibition assay, fluorogenic substrate: thrombin. The format is biochemical.

The target of a further series is T2, human β-FXIIa (Homo sapiens, UniProt P00748).
T2 construct: human β-FXIIa, HFXIIAB; purchased Molecular Innovations HFXIIAB
T2 sequence (P00748 373-615 limits assumed, other chains not shown): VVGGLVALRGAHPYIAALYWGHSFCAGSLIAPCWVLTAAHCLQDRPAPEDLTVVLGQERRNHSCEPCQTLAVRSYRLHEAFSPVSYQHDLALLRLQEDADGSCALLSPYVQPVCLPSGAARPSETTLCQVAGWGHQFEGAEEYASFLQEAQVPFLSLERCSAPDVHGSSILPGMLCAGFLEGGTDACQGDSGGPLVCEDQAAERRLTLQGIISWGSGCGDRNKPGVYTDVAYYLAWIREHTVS
In words: Serine protease inhibition assay, fluorogenic substrate: FXIIa. It counts as biochemical. The following applies: read-out: Serine Protease IC50 ± SD, FXIIa. The method, then:
Serine protease inhibition assays. The inhibitory activity of synthesized compounds towards thrombin, FXIIa, FXa, FXIa, plasmin, plasma kallikrein, chymotrypsin, and trypsin was measured by quantifying the hydrolysis rate of the fluorogenic substrate as reported previously. Briefly, the activity was tested in buffer (10 mM Tris-Cl, 150 mM NaCl, 10 mM MgCl2·6H2O, 1 mM CaCl2·2H2O, 0.1% w/v BSA, 0.01% v/v Triton-X100, pH = 7.4) utilizing clear flat-bottom, black polystyrene 96 well-plates. […] Dilutions of test-compounds ranging from 2 nM to 32 µM (final concentrations) in DMSO were prepared. The fluorogenic substrate solution was added into the wells followed by the addition of 2 µL of test-compounds solution, and the reaction was triggered by addition of the enzyme solution (final testing volume–152 µL). In case of blank (substrate + buffer) and control (substrate + enzyme) wells, 2 µL of DMSO was added instead of the test-compounds’ solution. Fluorescence intensity was measured with Microplate Reader Mithras LB 940 (Berthold Technologies, excitation at 355 nm, emission at 460 nm) for a period of 1 h (thrombin, FXIIa, FXa, FXIa, and trypsin), 30 min (plasma kallikrein, chymotrypsin), or 15 min (plasmin) with a read every minute. The reactions were performed at 25 °C. To derive IC50 values, endpoint RFU (single fluorescence reading) was used. Sigmoidal curves were prepared in GraphPad Prism software and IC50 values were derived from the fitted curves.

Where [1] appears, read: read-out: Serine Protease IC50 ± SD, Thrombin.
[2] abbreviates: [S]0 = 25 µM Boc-Val-Pro-Arg-AMC, Km = 18 ± 1 µM, triplicate, 25 °C, read-out: Serine Protease IC50 ± SD, Thrombin.

Like-named read-outs stand apart in the source and are kept apart here. Where only a bound is given, the exact number is not on record here.

Method for human α-thrombin: Serine protease inhibition assays. The inhibitory activity of synthesized compounds towards thrombin, FXIIa, FXa, FXIa, plasmin, plasma kallikrein, chymotrypsin, and trypsin was measured by quantifying the hydrolysis rate of the fluorogenic substrate as reported previously [14, 17]. Briefly, the activity was tested in buffer (10 mM Tris-Cl, 150 mM NaCl, 10 mM MgCl2·6H2O, 1 mM CaCl2·2H2O, 0.1% w/v BSA, 0.01% v/v Triton-X100, pH = 7.4) utilizing clear flat-bottom, black polystyrene 96 well-plates. […] The fluorogenic substrate solution was added into the wells followed by the addition of 2 µL of test-compounds solution, and the reaction was triggered by addition of the enzyme solution (final testing volume–152 µL). In case of blank (substrate + buffer) and control (substrate + enzyme) wells, 2 µL of DMSO was added instead of the test-compounds’ solution. […] To derive IC50 values, endpoint RFU (single fluorescence reading) was used. Sigmoidal curves were prepared in GraphPad Prism software and IC50 values were derived from the fitted curves [14, 17].

By IC50 is commonly meant the concentration needed to halve the response being measured. With `Nc1cc(-c2ccccc2)nn1C(=O)c1ccccc1` [29b, (5-amino-3-phenyl-1H-pyrazol-1-yl)(phenyl)methanone], the IC50 on human α-thrombin (setting [1]) and at human β-FXIIa was greater than 5 µM in each case.

In the case of `O=c1c2ccccc2[nH]c2nc(-c3cccnc3)nn12` [compound 20, 2-(pyridin-3-yl)-[1,2,4]triazolo[5,1-b]quinazolin-9(4H)-one], the IC50 at human α-thrombin (setting [1]) and on human β-FXIIa was greater than 5 µM each time.

As a reminder, the melting point is the temperature of the solid-liquid transition. On to `O=c1c2ccccc2n(Cc2ccc(Cl)s2)c2cc(C3CCCCC3)nn12` [10i, 4-[(5-chlorothiophen-2-yl)methyl]-2-cyclohexylpyrazolo[5,1-b]quinazolin-9(4H)-one], for which the melting point is 210 °C. Moreover, the IC50 on human α-thrombin (setting [1]) is greater than 5 µM. At human β-FXIIa, the IC50 is greater than 5 µM.

Consider `O=C(c1ccccc1I)n1nc(C2CCCCC2)cc1NCc1ccccc1` [9h, [5-(benzylamino)-3-cyclohexyl-1H-pyrazol-1-yl](2-iodophenyl)methanone], for which the IC50 at human α-thrombin (setting [1]) and at human β-FXIIa was greater than 5 µM throughout.

As for `CC(C)(C)C(=O)n1nc(-c2cccnc2)cc1NCc1ccco1` [24d, 1-(5-{[(furan-2-yl)methyl]amino}-3-(pyridin-3-yl)-1H-pyrazol-1-yl)-2,2-dimethylpropan-1-one], the IC50 is 1.31 ± 0.032 µM on human α-thrombin (setting [2]), roughly 1.3 µM on human α-thrombin (read-out: thrombin IC50) and greater than 5 µM on human β-FXIIa.

With `O=c1c2ccccc2n(Cc2cccc3ccccc23)c2cc(-c3cccnc3)nn12` [10c, 4-[(naphthalen-1-yl)methyl]-2-(pyridin-3-yl)pyrazolo[5,1-b]quinazolin-9(4H)-one], the melting point was 252 °C. On human α-thrombin (setting [1]), the IC50 was greater than 5 µM. The IC50 at human β-FXIIa is greater than 5 µM.

In the case of `O=C(c1ccccc1I)n1nc(C2CCCCC2)cc1NCc1ccc(Cl)s1` [9i, (5-{[(5-chlorothiophen-2-yl)methyl]amino}-3-cyclohexyl-1H-pyrazol-1-yl)(2-iodophenyl)methanone], the “thrombin inhibitory properties (in words)” value on human α-thrombin is “no activity”. Also, the IC50 on human α-thrombin (setting [2]) and at human β-FXIIa was greater than 5 µM each time.

As to `O=c1c2ccccc2[nH]c2nc(-c3ccncc3)nn12` [compound 22, 2-(pyridin-4-yl)-[1,2,4]triazolo[5,1-b]quinazolin-9(4H)-one], the IC50 at human α-thrombin (setting [1]) is greater than 5 µM.

Consider `Nc1cc(-c2cccnc2)nn1C(=O)c1ccccc1` [29a, [5-amino-3-(pyridin-3-yl)-1H-pyrazol-1-yl](phenyl)methanone], for which the IC50 on human α-thrombin (setting [1]) and on human β-FXIIa was greater than 5 µM throughout.

Compound `O=c1c2ccccc2n(Cc2ccc(Cl)s2)c2cc(-c3cccnc3)nn12` [10e, 4-[(5-chlorothiophen-2-yl)methyl]-2-(pyridin-3-yl)pyrazolo[5,1-b]quinazolin-9(4H)-one] displayed a melting point of 248 to 249 °C. In addition, the IC50 on human α-thrombin (setting [1]) was greater than 5 µM. The IC50 on human β-FXIIa was greater than 5 µM.

Regarding `CC(C)(C)C(=O)n1nc(-c2ccccc2)cc1NCc1ccc(Cl)s1` [24g, 1-(5-{[(5-chlorothiophen-2-yl)methyl]amino}-3-phenyl-1H-pyrazol-1-yl)-2,2-dimethylpropan-1-one], the 50% inhibitory concentration (IC50) at human α-thrombin (setting [2]) was 0.419 ± 0.099 µM; on human β-FXIIa it was greater than 5 µM.

For `O=C(c1ccccc1I)n1nc(-c2cccnc2)cc1NCC1CCCCC1` [9f, {5-[(cyclohexylmethyl)amino]-3-(pyridin-3-yl)-1H-pyrazol-1-yl}(2-iodophenyl)methanone], the IC50 at human α-thrombin (setting [1]) and at human β-FXIIa was greater than 5 µM throughout.

With `O=c1[nH]c2nc(-c3ccncc3)nn2c2ccccc12` [compound 23, 2-(pyridin-4-yl)-[1,2,4]triazolo[1,5-a]quinazolin-5(4H)-one], the IC50 at human α-thrombin (setting [1]) and at human β-FXIIa was greater than 5 µM in each case.

As to `O=C(Nc1cc(-c2cccnc2)n[nH]1)c1ccccc1` [26a, N-[3-(pyridin-3-yl)-1H-pyrazol-5-yl]benzamide], the melting point is 270 °C (dec.).

Compound `O=C(c1ccccc1I)n1nc(-c2cccnc2)cc1NCc1ccccc1` [9a, [5-(benzylamino)-3-(pyridin-3-yl)-1H-pyrazol-1-yl](2-iodophenyl)methanone] displayed a melting point of 115 °C. Besides, at human α-thrombin (setting [1]), the IC50 is greater than 5 µM. Besides, the IC50 at human β-FXIIa was greater than 5 µM.

`O=c1c2ccccc2n(Cc2ccc(Cl)s2)c2cc(-c3ccccc3)nn12` [10g, 4-[(5-chlorothiophen-2-yl)methyl]-2-phenylpyrazolo[5,1-b]quinazolin-9(4H)-one]: the IC50 at human α-thrombin (setting [1]) and at human β-FXIIa was greater than 5 µM throughout.

The compound `O=C(c1ccccc1I)n1nc(-c2ccccc2)cc1NCc1ccc(Cl)s1` [9g, (5-{[(5-chlorothiophen-2-yl)methyl]amino}-3-phenyl-1H-pyrazol-1-yl)(2-iodophenyl)methanone] came in with a melting point of 137 to 138 °C. Besides, the IC50 at human α-thrombin (setting [2]) was 1.31 ± 0.032 µM. For the same compound, the IC50 on human α-thrombin (read-out: thrombin IC50) was 1.3 µM. Further, the IC50 at human β-FXIIa is greater than 5 µM.

For `[H]/N=C(/N)c1ccc(NCc2nc3cc(C(=O)N(CCC(=O)O)c4ccccn4)ccc3n2C)cc1` [Dabigatran, reference compound], on human β-FXIIa, the IC50 is greater than 5 µM.

For `COc1ccc(Cn2c3ccccc3c(=O)n3nc(-c4cccnc4)cc23)cc1` [10b, 4-(4-methoxybenzyl)-2-(pyridin-3-yl)pyrazolo[5,1-b]quinazolin-9(4H)-one], the melting point was found to be 245 °C. Also, at human α-thrombin (setting [1]), the IC50 was greater than 5 µM. Moreover, the IC50 on human β-FXIIa is greater than 5 µM.

As for `O=c1c2ccccc2n(Cc2ccccc2)c2cc(-c3cccnc3)nn12` [10a, 4-benzyl-2-(pyridin-3-yl)pyrazolo[5,1b]quinazolin-9(4H)-one], the melting point stood at 266 °C. Moreover, the IC50 on human α-thrombin (setting [1]) was greater than 5 µM. Besides, the IC50 on human β-FXIIa was greater than 5 µM.

On to `O=c1c2ccccc2n(Cc2ccc(Cl)s2)c2nc(-c3cnccn3)nn12` [compound 19, 4-[(5-chlorothiophen-2-yl)methyl]-2-(pyrazin-2-yl)-[1,2,4]triazolo[5,1-b]quinazolin-9(4H)-one], for which the IC50 on human α-thrombin (setting [1]) and at human β-FXIIa was greater than 5 µM throughout.

`O=c1[nH]c2nc(-c3cccnc3)nn2c2ccccc12` [compound 21, 2-(pyridin-3-yl)-[1,2,4]triazolo[1,5-a]quinazolin-5(4H)-one]: the IC50 on human α-thrombin (setting [1]) and at human β-FXIIa was greater than 5 µM in each case.

With `CC(C)(C)C(=O)n1nc(-c2cccnc2)cc1NCc1cccc2ccccc12` [24c, 2,2-dimethyl-1-(5-{[(naphthalen-1-yl)methyl]amino}-3-(pyridin-3-yl)-1H-pyrazol-1-yl)propan-1-one], the melting point lay within 130 to 131 °C. Also, the IC50 on human α-thrombin (setting [2]) is greater than 5 µM. Besides, the IC50 on human β-FXIIa was greater than 5 µM.

Turning to `O=C(Nc1cc(-c2cccnc2)n[nH]1)c1ccccc1I` [compound 14, 2-iodo-N-[3-(pyridin-3-yl)-1H-pyrazol-5-yl]benzamide], the IC50 on human α-thrombin (setting [1]) and at human β-FXIIa was greater than 5 µM throughout.

With `O=c1[nH]c2cc(-c3cccnc3)nn2c2ccccc12` [compound 15, 2-(pyridin-3-yl)pyrazolo[1,5-a]quinazolin-5(4H)-one], the IC50 at human α-thrombin (setting [1]) and on human β-FXIIa was greater than 5 µM throughout.

In the case of `O=C(c1ccccc1I)n1nc(-c2cccnc2)cc1NCc1ccc(Cl)s1` [9e, (5-{[(5-chlorothiophen-2-yl)methyl]amino}-3-(pyridin-3-yl)-1H-pyrazol-1-yl)(2-iodophenyl)methanone], the “fold more potent thrombin inhibitor than 3-phenyl-substituted counterpart 9g” value on human α-thrombin (IC50 165 nM vs. 1.3 μM) is “about 8 fold”. Moreover, the values for the IC50 at human α-thrombin (setting [1]) and at human β-FXIIa were 0.165 ± 0.005 µM and greater than 5 µM, respectively.

`O=C(c1ccccc1I)n1nc(-c2cccnc2)cc1NCc1cccc2ccccc12` [9c, (2-iodophenyl)(5-{[(naphthalen-1-yl)methyl]amino}-3-(pyridin-3-yl)-1H-pyrazol-1-yl)methanone] came in with a melting point of 137 °C. For the same compound, the IC50 at human α-thrombin (setting [1]) was greater than 5 µM. Also, the IC50 at human β-FXIIa is greater than 5 µM.

For the compound `CC(C)(C)C(=O)n1nc(C2CCCCC2)cc1NCc1ccc(Cl)s1` [24i, 1-(5-{[(5-chlorothiophen-2-yl)methyl]amino}-3-cyclohexyl-1H-pyrazol-1-yl)-2,2-dimethylpropan-1-one], the melting point was 92 to 93 °C. Besides, the IC50 on human α-thrombin (setting [2]) is greater than 5 µM. For the same compound, on human β-FXIIa, the IC50 was greater than 5 µM.

The compound `O=C(c1ccccc1I)n1nc(-c2cccnc2)cc1NCc1ccco1` [9d, {5-[(furan-2-ylmethyl)amino]-3-(pyridin-3-yl)-1H-pyrazol-1-yl}(2-iodophenyl)methanone] showed a melting point of 103 to 104 °C. At human α-thrombin (setting [1]), the IC50 is greater than 5 µM. Further, the IC50 at human β-FXIIa was greater than 5 µM.

Regarding `O=c1c2ccccc2n(CC2CCCCC2)c2cc(-c3cccnc3)nn12` [10f, 4-(cyclohexylmethyl)-2-(pyridin-3-yl)pyrazolo[5,1-b]quinazolin-9(4H)-one], the IC50 at human α-thrombin (setting [1]) and at human β-FXIIa was greater than 5 µM throughout.
